Results: ChEMBL document CHEMBL1201861, “Genomics of Drug Sensitity in Cancer screening data, Wellcome Trust Sanger Institute”
Where “and” joins values, the source holds several entries; their conditions need not be identical. Equal entries are not always repeated.

What was measured:
Experiment in all cases: cells
COLO-792 = format: functional, cell-based, Homo sapiens
Description: SANGER: Inhibition of human COLO-792 cell growth in a cell viability assay.

CTB-1 = format: functional, cell-based; settings: Homo sapiens
Description: SANGER: Inhibition of human CTB-1 cell growth in a cell viability assay.

D-247MG = format: functional, cell-based, Homo sapiens
Description: SANGER: Inhibition of human D-247MG cell growth in a cell viability assay.

DBTRG-05MG = format: functional, cell-based, Homo sapiens;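 note: cell viability assay measuring growth inhibition of human DBTRG-05MG cells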
Description: SANGER: Inhibition of human DBTRG-05MG cell growth in a cell viability assay.

DJM-1 = format: functional, cell-based, Homo sapiens;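 note: growth inhibition of human DJM-1 cells, read out by a cell viability assay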
Description: SANGER: Inhibition of human DJM-1 cell growth in a cell viability assay.

Daoy = format: functional, cell-based, Homo sapiens;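 note: daoy cell growth inhibition, read out as cell viability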
Description: SANGER: Inhibition of human Daoy cell growth in a cell viability assay.

EGI-1 = format: functional, cell-based, Homo sapiens;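 note: cell viability readout used to gauge growth inhibition of EGI-1 cells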
Description: SANGER: Inhibition of human EGI-1 cell growth in a cell viability assay.

ES5 = format: functional, cell-based, Homo sapiens;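 note: growth inhibition of human ES5 cells, read out by a cell viability assay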
Description: SANGER: Inhibition of human ES5 cell growth in a cell viability assay.

ETK-1 = format: functional, cell-based, Homo sapiens;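 note: growth inhibition of human ETK-1 cells, read out with a cell viability assay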
Description: SANGER: Inhibition of human ETK-1 cell growth in a cell viability assay.

G-402 = format: functional, cell-based, Homo sapiens
Description: SANGER: Inhibition of human G-402 cell growth in a cell viability assay.

GB-1 = format: functional, cell-based, Homo sapiens;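 note: growth of GB-1 cells judged by a viability assay, IC50 marks the concentration inhibiting growth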
Description: SANGER: Inhibition of human GB-1 cell growth in a cell viability assay.

GCT = format: functional, cell-based, Homo sapiens;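 note: GCT cell line proliferation inhibition, read out with a cell viability assay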
Description: SANGER: Inhibition of human GCT cell growth in a cell viability assay.

GR-ST = format: functional, cell-based; settings: Homo sapiens
Description: SANGER: Inhibition of human GR-ST cell growth in a cell viability assay.

HuTu80 = format: functional, cell-based, Homo sapiens, HUTU-80;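 note: growth inhibition of HuTu80 human cells, determined with a cell viability readout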
Description: SANGER: Inhibition of human HUTU-80 cell growth in a cell viability assay.

HuO-3N1 = format: functional, cell-based, Homo sapiens;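 note: cell viability readout used to measure how strongly compounds suppress proliferation of human HuO-3N1 cells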
Description: SANGER: Inhibition of human HuO-3N1 cell growth in a cell viability assay.

JAR = format: functional, cell-based, Homo sapiens;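 note: growth inhibition of human JAR cells determined with a cell viability assay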
Description: SANGER: Inhibition of human JAR cell growth in a cell viability assay.

KARPAS-45 = format: functional, cell-based; settings: Homo sapiens;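 note: inhibition of cell line growth, read out through a viability assay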
Description: SANGER: Inhibition of human KARPAS-45 cell growth in a cell viability assay.

KG-1 = format: functional, cell-based; settings: Homo sapiens;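 note: growth inhibition of KG-1 cells, read out by a cell viability assay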
Description: SANGER: Inhibition of human KG-1 cell growth in a cell viability assay.

KM-H2 = format: functional, cell-based; settings: Homo sapiens;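 note: growth inhibition of KM-H2 cells, read out by a cell viability assay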
Description: SANGER: Inhibition of human KM-H2 cell growth in a cell viability assay.

KURAMOCHI = format: functional, cell-based; settings: Homo sapiens;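 note: growth inhibition of KURAMOCHI cells, read out with a cell viability assay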
Description: SANGER: Inhibition of human KURAMOCHI cell growth in a cell viability assay.

KYSE-410 = format: functional, cell-based, Homo sapiens;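 note: growth inhibition of KYSE-410 cells, measured through a cell viability readout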
Description: SANGER: Inhibition of human KYSE-410 cell growth in a cell viability assay.

LB831-BLC = format: functional, cell-based, Homo sapiens;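 note: growth inhibition of LB831-BLC cells, read out with a cell viability assay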
Description: SANGER: Inhibition of human LB831-BLC cell growth in a cell viability assay.

LC-2-ad = format: functional, cell-based, Homo sapiens;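 note: growth inhibition of human LC-2-ad cells, read out with a cell viability assay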
Description: SANGER: Inhibition of human LC-2-ad cell growth in a cell viability assay.

LN-405 = format: functional, cell-based, Homo sapiens
Description: SANGER: Inhibition of human LN-405 cell growth in a cell viability assay.

LoVo = format: functional, cell-based; settings: Homo sapiens;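 note: growth inhibition of human LoVo cells, read out with a cell viability assay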
Description: SANGER: Inhibition of human LoVo cell growth in a cell viability assay.

MC116 = format: functional, cell-based; settings: Homo sapiens;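 note: growth inhibition of MC116 cells, read out with a cell viability assay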
Description: SANGER: Inhibition of human MC116 cell growth in a cell viability assay.

MOLT-16 = format: functional, cell-based; settings: Homo sapiens;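 note: growth inhibition of human MOLT-16 cells, read out with a cell viability assay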
Description: SANGER: Inhibition of human MOLT-16 cell growth in a cell viability assay.

MSTO-211H = format: functional, cell-based, Homo sapiens
Description: SANGER: Inhibition of human MSTO-211H cell growth in a cell viability assay.

MV4-11 = format: functional, cell-based, MV-4-11; settings: Homo sapiens;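 note: cell viability readout measuring growth inhibition of human MV-4-11 cells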
Description: SANGER: Inhibition of human MV-4-11 cell growth in a cell viability assay.

NB5 = format: functional, cell-based, Homo sapiens;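 note: growth inhibition of NB5 cells, read out as cell viability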
Description: SANGER: Inhibition of human NB5 cell growth in a cell viability assay.

NB7 = format: functional, cell-based; settings: Homo sapiens;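 note: growth inhibition of NB7 cells, read out with a cell viability assay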
Description: SANGER: Inhibition of human NB7 cell growth in a cell viability assay.

NCI-H1092 = format: functional, cell-based; settings: Homo sapiens;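 note: cell growth inhibition measured with a cell viability assay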
Description: SANGER: Inhibition of human NCI-H1092 cell growth in a cell viability assay.

NCI-H1650 = format: functional, cell-based, Homo sapiens;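 note: growth inhibition of human NCI-H1650 cells measured by a cell viability assay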
Description: SANGER: Inhibition of human NCI-H1650 cell growth in a cell viability assay.

NCI-H2342 = format: functional, cell-based; settings: Homo sapiens;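 note: growth inhibition of the cancer cell line, determined with a cell viability assay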
Description: SANGER: Inhibition of human NCI-H2342 cell growth in a cell viability assay.

NCI-H526 = format: functional, cell-based; settings: Homo sapiens;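 note: growth inhibition of the human NCI-H526 cell line, measured by a cell viability assay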
Description: SANGER: Inhibition of human NCI-H526 cell growth in a cell viability assay.

NOMO-1 = format: functional, cell-based; settings: Homo sapiens;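 note: growth inhibition of human NOMO-1 cells measured by a cell viability assay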
Description: SANGER: Inhibition of human NOMO-1 cell growth in a cell viability assay.

OAW-28 = format: functional, cell-based, Homo sapiens;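 note: growth inhibition of OAW-28 cells, read out with a cell viability assay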
Description: SANGER: Inhibition of human OAW-28 cell growth in a cell viability assay.

RMG-I = format: functional, cell-based, Homo sapiens;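 note: growth inhibition of human RMG-I cells, read out with a cell viability assay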
Description: SANGER: Inhibition of human RMG-I cell growth in a cell viability assay.

RVH-421 = format: functional, cell-based, Homo sapiens
Description: SANGER: Inhibition of human RVH-421 cell growth in a cell viability assay.

SCC-15 = format: functional, cell-based, Homo sapiens;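 note: growth inhibition of SCC-15 cells, read out with a cell viability assay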
Description: SANGER: Inhibition of human SCC-15 cell growth in a cell viability assay.

SF-126 = format: functional, cell-based, Homo sapiens;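 note: growth inhibition of human SF126 cells, read out with a cell viability assay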
Description: SANGER: Inhibition of human SF126 cell growth in a cell viability assay.

SK-MEL-24 = format: functional, cell-based; settings: Homo sapiens;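 note: growth inhibition read out by a cell viability assay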
Description: SANGER: Inhibition of human SK-MEL-24 cell growth in a cell viability assay.

SW-620 = format: functional, cell-based, Homo sapiens;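 note: growth inhibition of human SW-620 cells, measured by a cell viability assay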
Description: SANGER: Inhibition of human SW620 cell growth in a cell viability assay.

SW684 = format: functional, cell-based, Homo sapiens;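 note: growth inhibition of human SW684 cells, measured by a cell viability assay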
Description: SANGER: Inhibition of human SW684 cell growth in a cell viability assay.

SW 962 = format: functional, cell-based, Homo sapiens;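 note: growth inhibition of human SW962 cells, read out by a cell viability assay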
Description: SANGER: Inhibition of human SW962 cell growth in a cell viability assay.

8305C = format: functional, cell-based, Homo sapiens
Description: SANGER: Inhibition of human 8305C cell growth in a cell viability assay.

BB49-HNC = format: functional, cell-based, Homo sapiens;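 note: cell viability assay read-out, reported as inhibition of BB49-HNC cell growth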
Description: SANGER: Inhibition of human BB49-HNC cell growth in a cell viability assay.

BT-20 = format: functional, cell-based, Homo sapiens;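 note: cell viability assay measuring suppression of growth in human BT-20 cells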
Description: SANGER: Inhibition of human BT-20 cell growth in a cell viability assay.

TE-6 = format: functional, cell-based, Homo sapiens;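 note: growth inhibition of TE-6 cells, read out with a cell viability assay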
Description: SANGER: Inhibition of human TE-6 cell growth in a cell viability assay.

TGBC24TKB = format: functional, cell-based, Homo sapiens;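 note: growth inhibition of human TGBC24TKB cells, read out with a cell viability assay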
Description: SANGER: Inhibition of human TGBC24TKB cell growth in a cell viability assay.

UACC-893 = format: functional, cell-based, Homo sapiens
Description: SANGER: Inhibition of human UACC-893 cell growth in a cell viability assay.

COLO-320-HSR = format: functional, cell-based; settings: Homo sapiens;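 note: growth inhibition of COLO-320-HSR cells, determined with a cell viability assay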
Description: SANGER: Inhibition of human COLO-320-HSR cell growth in a cell viability assay.

SiHa = format: functional, cell-based, Homo sapiens;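 note: Viability-based readout of growth inhibition in SiHa cells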
Description: SANGER: Inhibition of human SiHa cell growth in a cell viability assay.

Measured: IC50

CC(=O)O[C@@H]1[C@@H](OC(C)=O)[C@@H](O)[C@H](Oc2c(-c3ccc(O)cc3)oc3cc(O)cc(O)c3c2=O)O[C@H]1C
> 10 µM: COLO-792; Homo sapiens, COLO-792 | D-247MG; Homo sapiens, D-247MG | DBTRG-05MG; Homo sapiens, DBTRG-05MG | DJM-1; Homo sapiens, DJM-1 | Daoy; Homo sapiens, Daoy | EGI-1; Homo sapiens, EGI-1 | ES5; Homo sapiens, ES5 | ETK-1; Homo sapiens, ETK-1 | G-402; Homo sapiens, G-402 | GB-1; Homo sapiens, GB-1 | GCT; Homo sapiens, GCT | GR-ST | HuTu80; Homo sapiens, HuTu80 | JAR; Homo sapiens, JAR | KARPAS-45 | KG-1 | KM-H2 | KURAMOCHI | KYSE-410; Homo sapiens, KYSE-410 | LB831-BLC; Homo sapiens, LB831-BLC | LC-2-ad; Homo sapiens, LC-2-ad | LN-405; Homo sapiens, LN-405 | LoVo | MC116 | MOLT-16 | MSTO-211H; Homo sapiens, MSTO-211H | MV4-11 | NB5; Homo sapiens, NB5 | NB7 | NCI-H1092 | NCI-H1650; Homo sapiens, NCI-H1650 | NCI-H2342 | NCI-H526 | NOMO-1 | OAW-28; Homo sapiens, OAW-28 | RMG-I; Homo sapiens, RMG-I | RVH-421; Homo sapiens, RVH-421 | SCC-15; Homo sapiens, SCC-15 | SF-126; Homo sapiens, SF-126 | SK-MEL-24 | SW-620; Homo sapiens, SW-620 | SW684; Homo sapiens, SW684 | SW 962; Homo sapiens, SW 962 | 8305C; Homo sapiens, 8305C | BB49-HNC; Homo sapiens, BB49-HNC | BT-20; Homo sapiens, BT-20 | TE-6; Homo sapiens, TE-6 | TGBC24TKB; Homo sapiens, TGBC24TKB | UACC-893; Homo sapiens, UACC-893 | COLO-320-HSR
2.78 µM: HuO-3N1; Homo sapiens, HuO-3N1
7.32 µM: CTB-1

Cc1cc([C@@H](C)Nc2ccccc2C(=O)O)c2nc(N3CCOCC3)cc(=O)n2c1 [AZD-6482]
0.843 µM: NCI-H2342
3.24 µM and > 5.12 µM: G-402; g-402
1.46 µM: MC116
2.44 µM: LN-405; Homo sapiens, LN-405
3.32 µM: NOMO-1
2.9 µM: LN-405; ln-405
> 5.12 µM and 1.5 µM: SW 962; sw 962
0.592 µM and 1.79 µM: BT-20; bt-20
4.46 µM and > 5.12 µM: SF-126; sf-126
3.98 µM and 1.51 µM: UACC-893; uacc-893
4.33 µM: MOLT-16
> 5.12 µM and 0.73 µM: BB49-HNC; bb49-hnc
2.66 µM: MV4-11
> 5.12 µM: COLO-792; colo-792 | CTB-1 | D-247MG; d-247mg | DBTRG-05MG; dbtrg-05mg | DJM-1; djm-1 | Daoy; Homo sapiens, Daoy | Daoy; daoy | EGI-1; egi-1 | ES5; es5 | ETK-1; etk-1 | GB-1; gb-1 | GCT; gct | GR-ST | HuTu80; Homo sapiens, HuTu80 | HuTu80; hutu-80 | HuO-3N1; Homo sapiens, HuO-3N1 | HuO-3N1; huo-3n1 | JAR; jar | KG-1 | KM-H2 | KYSE-410; kyse-410 | LB831-BLC; lb831-blc | LC-2-ad; lc-2-ad | MSTO-211H; msto-211h | NB5; nb5 | NB7 | NCI-H1092 | NCI-H1650; nci-h1650 | NCI-H526 | OAW-28; Homo sapiens, OAW-28 | OAW-28; oaw-28 | RMG-I; rmg-i | RVH-421; rvh-421 | SCC-15; scc-15 | SK-MEL-24 | SW-620; sw-620 | SW684; Homo sapiens, SW684 | SW684; sw684 | SiHa; Homo sapiens, SiHa | SiHa; siha | 8305C; 8305c | TE-6; te-6 | TGBC24TKB; tgbc24tkb | COLO-320-HSR
3.3 µM: KARPAS-45
